Results taken from patent US10344025B2, “GLS1 inhibitors for treating disease” (Board of Regents, The University of Texas System, priority 2014, dated 2019).
Read-outs that look alike come from different tables or passages of the source.

Assays:
A549 cells = experiment: Proliferation Assay (A549 viability, Cell Titer Fluor, 72 hours); format: cell-based
Summary of the method: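 Cell Titer Fluor fluorescence after 72 h compound treatment (0.5% DMSO, 37 °C, 5% CO2) of A549 cells plated 24 h earlier at 1000/well. Four-parameter logistic fitting gave IC50.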

[1] = biological target: purified recombinant human GAC (GLS1) (Homo sapiens (Human), UniProt O94925); experiment: GLS1 Enzymatic Activity Assay (dual-coupled enzymatic assay, resorufin/Amplex UltraRed readout); format: biochemical;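 also: glutamate from GAC coupled via glutamate oxidase and peroxidase to resorufin, read as fluorescence (ex 530, em 590 nm) kinetically or at 20 min, four-parameter logistic IC50 fit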
Sequence of purified recombinant human GAC (GLS1) (O94925 other isoform, or with tags, fused parts or gaps): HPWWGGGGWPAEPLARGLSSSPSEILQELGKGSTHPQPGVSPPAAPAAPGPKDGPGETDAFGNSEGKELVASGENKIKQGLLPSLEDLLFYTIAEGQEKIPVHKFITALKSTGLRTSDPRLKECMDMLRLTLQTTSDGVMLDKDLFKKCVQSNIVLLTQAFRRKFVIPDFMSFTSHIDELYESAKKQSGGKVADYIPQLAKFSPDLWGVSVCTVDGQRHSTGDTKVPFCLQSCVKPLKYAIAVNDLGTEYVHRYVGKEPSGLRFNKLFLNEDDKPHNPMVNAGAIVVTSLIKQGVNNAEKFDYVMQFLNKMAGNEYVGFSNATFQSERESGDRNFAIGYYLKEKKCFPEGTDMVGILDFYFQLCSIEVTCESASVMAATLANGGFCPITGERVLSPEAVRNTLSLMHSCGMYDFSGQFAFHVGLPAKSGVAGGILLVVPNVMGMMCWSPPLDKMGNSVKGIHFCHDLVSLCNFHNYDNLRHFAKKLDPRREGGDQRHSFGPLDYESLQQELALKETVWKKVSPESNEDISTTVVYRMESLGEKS

Structure (SMILES)	EC50 (A549 cells; Homo sapiens, A549, 72 h) [nM]	IC50 [1] [nM]	EC50 (A549 cells) [nM]
Cc1ccc(CNC(=O)c2cn(CCC(F)Cn3cc(NC(=O)Cc4ccccn4)nn3)nn2)cn1 (stereo not shown) [Example 364, 1-(3-fluoro-4-{4-[2-(pyridin-2-yl)acetamido]-1H-1,2,3-triazol-1-yl}butyl)-N-[(6-methylpyridin-3-yl)methyl]-1H-1,2,3-triazole-4-carboxamide]	500 to 5000	100 to 500	
O=C(NCC1CCCOC1)c1cn(CCC(F)Cn2cc(C(=O)NCc3cc(C(F)(F)F)ccn3)nn2)nn1 (stereo not shown) [Example 473, 1-(2-fluoro-4-{4-[(oxan-3-ylmethyl)carbamoyl]-1H-1,2,3-triazol-1-yl}butyl)-N-{[4-(trifluoromethyl)pyridin-2-yl]methyl}-1H-1,2,3-triazole-4-carboxamide]	100 to 500	100 to 500	
O=C(CN1CC(F)C1)Nc1cn(CCCCn2cc(C(=O)NCc3cccc(OC(F)(F)F)c3)nn2)nn1 [Example 329, 1-(4-{4-[2-(3-fluoroazetidin-1-yl)acetamido]-1H-1,2,3-triazol-1-yl}butyl)-N-{[3-(trifluoromethoxy)phenyl]methyl}-1H-1,2,3-triazole-4-carboxamide]	500 to 5000	100 to 500	
O=C(Cc1ccncc1)Nc1ccc(CCCCn2cc(C(=O)NCc3cc(OC(F)(F)F)ccc3F)nn2)nn1 [Example 590, N-(2-fluoro-5-(trifluoromethoxy)benzyl)-1-(4-(6-(2-(pyridin-4-yl)acetamido)pyridazin-3-yl)butyl)-1H-1,2,3-triazole-4-carboxamide]	< 100	< 100	
CNC(=O)c1cn(CC(F)CCn2cc(C(=O)NCc3cc(C(F)(F)F)ccn3)nn2)nn1 (stereo not shown) [Example 149, 1-{2-fluoro-4-[4-({[4-yl]methyl}carbamoyl)-1H-1,2,3-triazol-1-yl]butyl}-N-methyl-1H-1,2,3-triazole-4-carboxamide]	500 to 5000	100 to 500	
CNC(=O)c1cn(CCCCc2ccc(NC(=O)Cc3cc(-c4ccccc4OC(F)(F)F)ccn3)nn2)nn1 [Example 207, N-methyl-1-(4-(6-(2-(4-(2-(trifluoromethoxy)phenyl)pyridin-2-yl)acetamido)pyridazin-3-yl)butyl)-1H-1,2,3-triazole-4-carboxamide]	< 100	< 100	
CNC(=O)c1cn(CC(F)CCn2cc(NC(=O)Cc3cccc(OC(F)(F)F)c3)nn2)nn1 (stereo not shown) [Example 538, 1-[2-fluoro-4-(4-{2-[3-(trifluoromethoxy)phenyl]acetamido}-1H-1,2,3-triazol-1-yl)butyl]-N-methyl-1H-1,2,3-triazole-4-carboxamide]	100 to 500	< 100	
O=C(NCc1cncc(C(F)(F)F)c1)c1cn(CC(F)CCc2nnc(C(=O)NCC(F)(F)F)s2)nn1 (stereo not shown) [Example 500, 5-{3-fluoro-4-[4-({[5-(trifluoromethyl)pyridin-3-yl]methyl}carbamoyl)-1H-1,2,3-triazol-1-yl]butyl}-N-(2,2,2-trifluoroethyl)-1,3,4-thiadiazole-2-carboxamide]	100 to 500	100 to 500	
CNC(=O)c1cn(CCCCc2ccc(NC(=O)Cc3cccc(C4CCN(C(=O)OC(C)(C)C)CC4)c3)nn2)nn1 [Example 213, tert-butyl 4-(3-(2-((6-(4-(4-(methylcarbamoyl)-1H-1,2,3-triazol-1-yl)butyl)pyridazin-3-yl)amino)-2-oxoethyl)phenyl)piperidine-1-carboxylate]	< 100	< 100	
O=C(NCc1cccc(C(F)(F)F)n1)c1cn(CCC(F)Cn2cc(C(=O)NCc3cccc(OC(F)(F)F)c3)nn2)nn1 (stereo not shown) [Example 438, 1-{3-fluoro-4-[4-({[3-(trifluoromethoxy)phenyl]methyl}carbamoyl)-1H-1,2,3-triazol-1-yl]butyl}-N-{[6-(trifluoromethyl)pyridin-2-yl]methyl}-1H-1,2,3-triazole-4-carboxamide]	< 100	< 100	
CCNC(=O)c1cn(CC(F)CCc2nnc(NC(=O)Cc3cccc(OC(F)(F)F)c3)s2)nn1 (stereo not shown) [Example 531, N-ethyl-1-[2-fluoro-4-(5-{2-[3-(trifluoromethoxy)phenyl]acetamido}-1,3,4-thiadiazol-2-yl)butyl]-1H-1,2,3-triazole-4-carboxamide]	100 to 500	< 100	
C[C@@H](NC(=O)c1cn(CCC(F)Cn2cc(C(=O)NCc3cc(C(F)(F)F)ccn3)nn2)nn1)c1ccccc1 (stereo partly drawn) [Example 131, 1-[2-fluoro-4-(4-{[(1R)-1-phenylethyl]carbamoyl}-1H-1,2,3-triazol-1-yl)butyl]-N-{[4-(trifluoromethyl)pyridin-2-yl]methyl}-1H-1,2,3-triazole-4-carboxamide]	100 to 500	100 to 500	
O=C(Cc1ccn[nH]1)Nc1nnc(CCC(F)Cn2cc(C(=O)NCc3cc(OC(F)(F)F)ccc3F)nn2)s1 (stereo not shown) [Example 575, 1-(4-(5-(2-(1H-pyrazol-5-yl)acetamido)-1,3,4-thiadiazol-2-yl)-2-fluorobutyl)-N-(2-fluoro-5-(trifluoromethoxy)benzyl)-1H-1,2,3-triazole-4-carboxamide]	100 to 500	< 100	
CNC(=O)c1cn(CCCCc2ccc(NC(=O)Cc3cnccn3)nn2)nn1 [Example 579, N-methyl-1-(4-(6-(2-(pyrazin-2-yl)acetamido)pyridazin-3-yl)butyl)-1H-1,2,3-triazole-4-carboxamide]	500 to 5000	100 to 500	
CNC(=O)c1cn(C[C@@H](F)CCc2nnc(NC(=O)Cc3cccc(OC(F)(F)F)c3)s2)nn1 [Example 193, (S)-1-(2-fluoro-4-(5-(2-(3-(trifluoromethoxy)phenyl)acetamido)-1,3,4-thiadiazol-2-yl)butyl)-N-methyl-1H-1,2,3-triazole-4-carboxamide]		< 100	500 to 5000

Further lines, results first:

EC50 (A549 cells; Homo sapiens, A549, 72 h) [nM]	IC50 [1] [nM]	EC50 (A549 cells) [nM]	Structure (SMILES)
< 100	< 100		O=C(NCc1ccccn1)c1cn(CCC(F)Cn2cc(C(=O)NCc3cc(OC(F)(F)F)ccc3F)nn2)nn1 (stereo not shown) [Example 373, 1-{3-fluoro-4-[4-({[2-fluoro-5-(trifluoromethoxy)phenyl]methyl}carbamoyl)-1H-1,2,3-triazol-1-yl]butyl}-N-(pyridin-2-ylmethyl)-1H-1,2,3-triazole-4-carboxamide]
100 to 500	< 100		O=C(NCc1cccc(OC(F)(F)F)c1)c1cn(CCCCc2ccc(NC(=O)C3CC3)nn2)nn1 [Example 176, 1-[4-(6-cyclopropaneamidopyridazin-3-yl)butyl]-N-{[3-(trifluoromethoxy)phenyl]methyl}-1H-1,2,3-triazole-4-carboxamide]
< 100	< 100		O=C(Cc1ccccn1)Nc1nnc(CCCCn2cc(C(=O)NCc3cccc(OC(F)(F)F)c3)nn2)s1 [Example 553, 1-(4-{5-[2-(pyridin-2-yl)acetamido]-1,3,4-thiadiazol-2-yl}butyl)-N-{[3-(trifluoromethoxy)phenyl]methyl}-1H-1,2,3-triazole-4-carboxamide]
< 100	< 100		CC(C)(C)OC(=O)NCc1cccc(CNC(=O)c2cn(CCCCn3cc(C(=O)NCc4cc(C(F)(F)F)ccn4)nn3)nn2)c1 [Example 110, tert-butyl N-[(3-{[(1-{4-[4-({[4-(trifluoromethyl)pyridin-2-yl]methyl}carbamoyl)-1H-1,2,3-triazol-1-yl]butyl}-1H-1,2,3-triazol-4-yl)formamido]methyl}phenyl)methyl]carbamate]
100 to 500	< 100		O=C(Cc1cccc(OC(F)(F)F)c1)Nc1nnc(CCC(F)Cn2cc(C(=O)NCC(F)(F)F)nn2)s1 (stereo not shown) [Example 536, 1-[2-fluoro-4-(5-{2-[3-(trifluoromethoxy)phenyl]acetamido}-1,3,4-thiadiazol-2-yl)butyl]-N-(2,2,2-trifluoroethyl)-1H-1,2,3-triazole-4-carboxamide]
100 to 500	< 100		O=C(NCc1ccccn1)c1cn(CC(F)CCc2nnc(C(=O)NCc3cc(C(F)(F)F)ccn3)s2)nn1 (stereo not shown) [Example 234, 5-(3-fluoro-4-(4-((pyridin-2-ylmethyl)carbamoyl)-1H-1,2,3-triazol-1-yl)butyl)-N-((4-(trifluoromethyl)pyridin-2-yl)methyl)-1,3,4-thiadiazole-2-carboxamide]
< 100	< 100		CC(=O)Nc1ccc(CCCCc2nnc(C(=O)NCc3cccc(OC(F)(F)F)c3)s2)nn1 [Example 599, 5-(4-(6-acetamidopyridazin-3-yl)butyl)-N-(3-(trifluoromethoxy)benzyl)-1,3,4-thiadiazole-2-carboxamide]
100 to 500	< 100		O=C(Cc1ccccc1)Nc1ccc(CCCCc2nnc(C(=O)NCc3ccccc3)s2)nn1 [Example 28, N-benzyl-5-{4-[6-(2-phenylacetamido)pyridazin-3-yl]butyl}-1,3,4-thiadiazole-2-carboxamide]
< 100	< 100		O=C(Cc1ccccn1)Nc1cn(CCCCn2cc(C(=O)NCc3cc(OC(F)(F)F)ccc3F)nn2)nn1 [Example 337, N-{[2-fluoro-5-(trifluoromethoxy)phenyl]methyl}-1-(4-{4-[2-(pyridin-2-yl)acetamido]-1H-1,2,3-triazol-1-yl}butyl)-1H-1,2,3-triazole-4-carboxamide]
< 100	< 100		O=C(Cc1cccc(OC(F)(F)F)c1)Nc1cn(CC(F)CCn2cc(C(=O)NCc3cc(OC(F)(F)F)ccc3F)nn2)nn1 (stereo not shown) [Example 340, 1-[3-fluoro-4-(4-{2-[3-(trifluoromethoxy)phenyl]acetamido}-1H-1,2,3-triazol-1-yl)butyl]-N-{[2-fluoro-5-(trifluoromethoxy)phenyl]methyl}-1H-1,2,3-triazole-4-carboxamide]
100 to 500	< 100		CC(C)(CO)CNC(=O)c1cn(CCCCc2ccc(NC(=O)Cc3cccc(OC(F)(F)F)c3)nn2)nn1 [Example 560, N-(3-hydroxy-2,2-dimethylpropyl)-1-[4-(6-{2-[3-(trifluoromethoxy)phenyl]acetamido}pyridazin-3-yl)butyl]-1H-1,2,3-triazole-4-carboxamide]
